Key:
[1] = tested on: Chrysosporium keratinophilum; experiment: Agar plate disc-diffusion, antifungal activity; assay type: cell-based; details: Sabouraud's dextrose agar, 72 h
Description: (§1) The agar plate disc-diffusion method was applied. […] The discs were then placed onto the surface of agar plates (nutrient agar for bacteria and Sabouraud's dextrose agar for fungi) seeded with the test organism. Each plate contained 15 mL of the agar medium, previously seeded with 0.2 mL of the broth culture of each organism pregrown for 18 h. The plates were incubated at 37° C. for 48 h, and 72 h for fungi. The inhibition zones was measured in mm. Discs impregnated with DMSO were used as a control, and its inhibition zone was subtracted from the tested compound actual inhibition zone.
(§2) The antibacterial activity was screened against gram positive bacteria namely Bacillus cereus and Staphylococcus aureus and gram-negative bacterial strains namely Pseudomonas aeruginosa and Escherichia coli, while the antifungal activity was screened against Aspergillus flavus and Chrysosporium keratinophilum as shown in Table 1 and 2.

Aspergillus flavus = experiment: Agar plate disc-diffusion, antifungal activity; assay type: cell-based; details: Sabouraud's dextrose agar, 72 h
Description: (§3) The agar plate disc-diffusion method was applied. Sterilized filter papers (6 mm in diameter) were wetted with […] of a solution of N′-(2-(5-(4-chlorophenyl)-1,3,4-oxadiazol-2-ylthio)acetoxy)-2-naphthimidamide (3) to be tested, containing 10 mg/mL in DMSO, and the discs were allowed to air dry. The discs were then placed onto the surface of agar plates (nutrient agar for bacteria and Sabouraud's dextrose agar for fungi) seeded with the test organism. Each plate contained 15 mL of the agar medium, previously seeded with 0.2 mL of the broth culture of each organism pregrown for 18 h. The plates were incubated at 37° C. for 48 h, and 72 h for fungi. The inhibition zones was measured in mm. Discs impregnated with DMSO were used as a control, and its inhibition zone was subtracted from the tested compound actual inhibition zone.
as §2

Escherichia coli = experiment: Agar plate disc-diffusion, antibacterial activity; assay type: cell-based; details: nutrient agar, 37° C., 48 h
Description: as §3, §2

Pseudomonas aeruginosa = experiment: Agar plate disc-diffusion, antibacterial activity; assay type: cell-based; details: nutrient agar, 37° C., 48 h
Description: as §1, §2

Staphylococcus aureus = experiment: Agar plate disc-diffusion, antibacterial activity; assay type: cell-based; details: nutrient agar, 37° C., 48 h
Description: as §1, §2

Bacillus cereus = experiment: Agar plate disc-diffusion, antibacterial activity; assay type: cell-based; details: nutrient agar, 37° C., 48 h
Description: as §1, §2

[2] = A = concentration of comp. = 10,000 μg/mL
[3] = B = concentration of comp. = 30,000 μL
[4] = C = concentration of comp. = 50,000 μL
[5] = A = concentration of comp. = 10 mg/mL

N/C(=N\OC(=O)CSc1nnc(-c2ccc(Cl)cc2)o1)c1ccc2ccccc2c1 [Compound 3, N′-(2-(5-(4-chlorophenyl)-1,3,4-oxadiazol-2-ylthio)acetoxy)-2-naphthimidamide]
inhibition zone, Chrysosporium keratinophilum [1, 2]: 23 mm | inhibition zone, Chrysosporium keratinophilum [1, 3]: 29 mm | inhibition zone, Chrysosporium keratinophilum [1, 4]: 38 mm | inhibition zone, Aspergillus flavus (Aspergillus flavus; A = concentration of comp. = 10,000 μL): 25 mm | inhibition zone, Aspergillus flavus (Aspergillus flavus; [3]): 28 mm | inhibition zone, Aspergillus flavus (Aspergillus flavus; [4]): 37 mm | melting point: 181 to 182 °C | inhibition zone, Escherichia coli (Escherichia coli; [2]): 35 mm | inhibition zone, Escherichia coli (Escherichia coli; [3]): 41 mm | inhibition zone, Escherichia coli (Escherichia coli; [4]): 47 mm | inhibition zone, Pseudomonas aeruginosa (Pseudomonas aeruginosa; [5]): 26 mm | inhibition zone, Pseudomonas aeruginosa (Pseudomonas aeruginosa; [3]): 33 mm | inhibition zone, Pseudomonas aeruginosa (Pseudomonas aeruginosa; [4]): 39 mm | inhibition zone, Staphylococcus aureus (Staphylococcus aureus; [5]): 17 mm | inhibition zone, Staphylococcus aureus (Staphylococcus aureus; [3]): 24 mm | inhibition zone, Staphylococcus aureus (Staphylococcus aureus; [4]): 29 mm | inhibition zone, Bacillus Cereus (Bacillus cereus; [5]): 31 mm | inhibition zone, Bacillus Cereus (Bacillus cereus; [3]): 36 mm | inhibition zone, Bacillus Cereus (Bacillus cereus; [4]): 43 mm
